Measurements: patent US4148795A, “Dithiocarbamate ester bactericides and fungicides” (American Cyanamid Company, priority 1976, dated 1979)
Where “and” joins values, the source holds several entries; their conditions need not be identical. Equal entries are not always repeated. Where two headings read alike, the source gives them in different places.

Assays:
Aerobacter aerogenes = format: cell-based; conditions: 100 ppm; subcultures 72 hours at 37° C
[1] = system: Stemphylium sarcinaeforme; test: Agar dilution plate; format: cell-based; conditions: Ss; 100 ppm, 72 hours at 23° C
Experimental: (§1) Test compounds were incorporated in a Sabouraud's dextrose agar in an amount sufficient to provide the active ingredient in a concentration of about 100 ppm. A twenty-ml. sample of the agar mixture is placed in a petri dish and permitted to solidify. An agar sample is inoculated with the test organism set forth below and then covered and incubated for a period of about 72 hours at 23° C. After incubation, growth observations are made. The test results are recorded and the test is repeated twice for the purpose of comparison.
(§2) The data obtained with a variety of test organisms is shown in the table below, and ratings are shown as 0 or 5. O indicates no control, 5 indicates 100% effectiveness of the test compound against the specified organism.
Ss= Stemphylium sarcinaeforme

Piricularia oryzae = format: in vivo; parameters: scale not given here; conditions: Rice Blast, five days
Monilinia fructicola [2] = test: Spore germination inhibition; format: cell-based; conditions: for inhibition at 1 ppm / inhibition at 10 ppm: 24 hours; for inhibition at 100 ppm: 24 h, read-out: % Inhibition of Spore Germination
Source text: (§3) The test procedure involves the preparation of a 100, 10 or 1 ppm. suspension of test compound in water. The solutions are placed in one dram "opticlear" vials and separately inoculated with one drop of a spore suspension prepared from seven-day cultures of Aspergillus niger and 14-day old cultures of Monilinia fructicola and Stemphylium sarcinaeforme,all grown on potato-dextrose agar. The vials containing the separately inoculated solutions of test compounds are then capped and placed on a rotating tumbler for 24 hours to assure contact of the organism with the test compound. After 24 hours, the vials are removed and examined for inhibition of […].

[3] = system: Stemphylium sarcinaeforme; test: Spore germination inhibition; format: cell-based; conditions: Stemphylium sarciniforme; for inhibition at 100 ppm: 24 h, read-out: % Inhibition of Spore Germination; for inhibition at 1 ppm / inhibition at 10 ppm: 24 hours
Source text: as §3

Aspergillus niger [4] = test: Spore germination inhibition; format: cell-based; conditions: 24 hours
Source text: as §3

Venturia inaequalis = conditions: in vivo
Xanthomonas vesicatoria = format: cell-based; conditions: 100 ppm; subcultures 72 hours at 37° C
Phytophthora infestans = format: in vivo; parameters: scale not given here; conditions: Tomato Late Blight, five days
Staphylococcus aureus = format: cell-based; conditions: 100 ppm; subcultures 72 hours at 37° C
Monilinia fructicola [5] = test: Agar dilution plate; format: cell-based; conditions: Mf; 100 ppm, 72 hours at 23° C
Experimental: as §1, §2

Fusarium lycopersici = test: Agar dilution plate; format: cell-based; conditions: Fl; 100 ppm, 72 hours at 23° C
Experimental: as §1, §2

Pythium de Baryanum = test: Agar dilution plate; format: cell-based; conditions: Pd; 100 ppm, 72 hours at 23° C
Experimental: as §1, §2

Rhizoctonia solani = test: Agar dilution plate; format: cell-based; conditions: Rs; 100 ppm, 72 hours at 23° C
Experimental: as §1, §2

Aspergillus niger [6] = test: Agar dilution plate; format: cell-based; conditions: An; 100 ppm, 72 hours at 23° C
Experimental: as §1, §2

[7] = system: Collectotrichum lagenarium; test: Agar dilution plate; format: cell-based; conditions: Cl; 100 ppm, 72 hours at 23° C
Experimental: as §1, §2
Cl= Collectotrichum lagenarium

Pseudomonas solaracaerum = format: cell-based; conditions: 100 ppm, 72 hours at 23° C
Verticillium albo-atrum = test: Agar dilution plate; format: cell-based; conditions: Va; 100 ppm, 72 hours at 23° C
Experimental: as §1, §2
Va= Verticillium albo-atrum
Throughout, for Antibacterial Activity rating: key: 0: No Effect; 9: Kill of Bacteria; 5: Stasis, but not Kill of all Bacteria.

## CN(C)C(=S)SCC(CSC(=S)N(C)C)[N+](=O)[O-] [Example 1, 2-Nitrotrimethylene Dimethyldithiocarbamate]
Aerobacter aerogenes
  Antibacterial Activity rating: 0
[1]
  Agar Dilution Plate rating: 5 (100% effectiveness of the test compound against the specified organism)
Piricularia oryzae; 150 ppm
  disease control index: 2
Piricularia oryzae; 300 ppm
  disease control index: 2
Piricularia oryzae; 600 ppm
  disease control index: 3
Piricularia oryzae; 1200 ppm
  disease control index: 3
Monilinia fructicola [2]
  inhibition at 1 ppm: 100%
  inhibition at 10 ppm: 100%
  inhibition at 100 ppm: 100%
[3]
  inhibition at 100 ppm: 100%
  inhibition at 1 ppm: 100%
  inhibition at 10 ppm: 100%
Aspergillus niger [4]
  inhibition at 1 ppm: 100%
  inhibition at 10 ppm: 100%
  inhibition at 100 ppm: 100%
Venturia inaequalis
  disease control index: 3 and 0
Xanthomonas vesicatoria
  Antibacterial Activity rating: 0
Phytophthora infestans; 150 ppm
  disease control index: 3
Phytophthora infestans; 300 ppm
  disease control index: 4
Phytophthora infestans; 600 ppm
  disease control index: 4
Phytophthora infestans; 1200 ppm
  disease control index: 5
Staphylococcus aureus
  Antibacterial Activity rating: 5
Monilinia fructicola [5]
  Agar Dilution Plate rating: 5 (100% effectiveness of the test compound against the specified organism)
Fusarium lycopersici
  Agar Dilution Plate rating: 0
Pythium de Baryanum
  Agar Dilution Plate rating: 0
Rhizoctonia solani
  Agar Dilution Plate rating: 0
Aspergillus niger [6]
  Agar Dilution Plate rating: 0
[7]
  Agar Dilution Plate rating: 5 (100% effectiveness of the test compound against the specified organism)
Pseudomonas solaracaerum
  Agar Dilution Plate rating: 0
Verticillium albo-atrum
  Agar Dilution Plate rating: 0

## CN(C)C(=S)SCC(SC(=S)N(C)C)C(=O)c1ccccc1 (centres unmarked) [Example 11]
Aerobacter aerogenes
  Antibacterial Activity rating: 0
[1]
  Agar Dilution Plate rating: 0
Piricularia oryzae; at 75 ppm
  disease control index: 3
Piricularia oryzae; at 500 ppm
  disease control index: 4
Venturia inaequalis
  disease control index: 5
Xanthomonas vesicatoria
  Antibacterial Activity rating: 0
Phytophthora infestans; at 100 ppm
  disease control index: 3
Phytophthora infestans; at 500 ppm
  disease control index: 4
Staphylococcus aureus
  Antibacterial Activity rating: 5
Monilinia fructicola [5]
  Agar Dilution Plate rating: 5 (100% effectiveness of the test compound against the specified organism)
Fusarium lycopersici
  Agar Dilution Plate rating: 0
Pythium de Baryanum
  Agar Dilution Plate rating: 0
Rhizoctonia solani
  Agar Dilution Plate rating: 0
Aspergillus niger [6]
  Agar Dilution Plate rating: 0
[7]
  Agar Dilution Plate rating: 5 (100% effectiveness of the test compound against the specified organism)
Pseudomonas solaracaerum
  Agar Dilution Plate rating: 0
Verticillium albo-atrum
  Agar Dilution Plate rating: 0

## CN(C)C(=S)SC(C[N+](=O)[O-])c1ccc(Cl)cc1Cl (stereo not drawn) [Example 17, 2,4-Dichloro-α-(nitromethyl)benzyl Dimethyldithiocarbamate]
Aerobacter aerogenes
  Antibacterial Activity rating: 0
[1]
  Agar Dilution Plate rating: 0
Piricularia oryzae; 150 ppm
  disease control index: 3
Piricularia oryzae; 300 ppm
  disease control index: 5
Piricularia oryzae; 600 ppm
  disease control index: 5
Piricularia oryzae; 1200 ppm
  disease control index: 5
Venturia inaequalis
  disease control index: 5 and 0
Xanthomonas vesicatoria
  Antibacterial Activity rating: 0
Phytophthora infestans; 150 ppm
  disease control index: 0
Phytophthora infestans; 300 ppm
  disease control index: 4
Phytophthora infestans; 600 ppm
  disease control index: 5
Phytophthora infestans; 1200 ppm
  disease control index: 5
Staphylococcus aureus
  Antibacterial Activity rating: 5
Monilinia fructicola [5]
  Agar Dilution Plate rating: 0
Fusarium lycopersici
  Agar Dilution Plate rating: 0
Pythium de Baryanum
  Agar Dilution Plate rating: 0
Rhizoctonia solani
  Agar Dilution Plate rating: 0
Aspergillus niger [6]
  Agar Dilution Plate rating: 0
[7]
  Agar Dilution Plate rating: 5 (100% effectiveness of the test compound against the specified organism)
Pseudomonas solaracaerum
  Agar Dilution Plate rating: 0
Verticillium albo-atrum
  Agar Dilution Plate rating: 5 (100% effectiveness of the test compound against the specified organism)

## COc1ccc(C(C[N+](=O)[O-])SC(=S)N(C)C)cc1OC (stereo not drawn) [Example 25, 3,4-Dimethoxy-α-(nitromethyl)benzyl Dimethyldithiocarbamate]
Aerobacter aerogenes
  Antibacterial Activity rating: 5
[1]
  Agar Dilution Plate rating: 5 (100% effectiveness of the test compound against the specified organism)
Piricularia oryzae; 150 ppm
  disease control index: 3
Piricularia oryzae; 300 ppm
  disease control index: 4
Piricularia oryzae; 600 ppm
  disease control index: 5
Piricularia oryzae; 1200 ppm
  disease control index: 4
Monilinia fructicola [2]
  inhibition at 1 ppm: 0%
  inhibition at 10 ppm: 100%
  inhibition at 100 ppm: 100%
[3]
  inhibition at 100 ppm: 100%
  inhibition at 1 ppm: 100%
  inhibition at 10 ppm: 100%
Aspergillus niger [4]
  inhibition at 1 ppm: 0%
  inhibition at 10 ppm: 100%
  inhibition at 100 ppm: 100%
Venturia inaequalis
  disease control index: 5
Xanthomonas vesicatoria
  Antibacterial Activity rating: 5
Phytophthora infestans; 150 ppm
  disease control index: 5
Phytophthora infestans; 300 ppm
  disease control index: 5
Phytophthora infestans; 600 ppm
  disease control index: 5
Phytophthora infestans; 1200 ppm
  disease control index: 5
Staphylococcus aureus
  Antibacterial Activity rating: 5
Monilinia fructicola [5]
  Agar Dilution Plate rating: 5 (100% effectiveness of the test compound against the specified organism)
Fusarium lycopersici
  Agar Dilution Plate rating: 0
Pythium de Baryanum
  Agar Dilution Plate rating: 5 (100% effectiveness of the test compound against the specified organism)
Rhizoctonia solani
  Agar Dilution Plate rating: 0
Aspergillus niger [6]
  Agar Dilution Plate rating: 0
[7]
  Agar Dilution Plate rating: 5 (100% effectiveness of the test compound against the specified organism)
Pseudomonas solaracaerum
  Agar Dilution Plate rating: 0
Verticillium albo-atrum
  Agar Dilution Plate rating: 5 (100% effectiveness of the test compound against the specified organism)

## CC(C)c1ccc(C(C[N+](=O)[O-])SC(=S)N(C)C)cc1 (stereo not drawn) [Example 26, p-Isopropyl-α-(nitromethyl)benzyl Dimethyldithiocarbamate]
Aerobacter aerogenes
  Antibacterial Activity rating: 0
[1]
  Agar Dilution Plate rating: 5 (100% effectiveness of the test compound against the specified organism)
Piricularia oryzae; 150 ppm
  disease control index: 4
Piricularia oryzae; 300 ppm
  disease control index: 4
Piricularia oryzae; 600 ppm
  disease control index: 5
Piricularia oryzae; 1200 ppm
  disease control index: 5
Venturia inaequalis
  disease control index: 5 and 0
Xanthomonas vesicatoria
  Antibacterial Activity rating: 0
Phytophthora infestans; 150 ppm
  disease control index: 3
Phytophthora infestans; 300 ppm
  disease control index: 4
Phytophthora infestans; 600 ppm
  disease control index: 4
Phytophthora infestans; 1200 ppm
  disease control index: 5
Staphylococcus aureus
  Antibacterial Activity rating: 5
Monilinia fructicola [5]
  Agar Dilution Plate rating: 5 (100% effectiveness of the test compound against the specified organism)
Fusarium lycopersici
  Agar Dilution Plate rating: 0
Pythium de Baryanum
  Agar Dilution Plate rating: 5 (100% effectiveness of the test compound against the specified organism)
Rhizoctonia solani
  Agar Dilution Plate rating: 5 (100% effectiveness of the test compound against the specified organism)
Aspergillus niger [6]
  Agar Dilution Plate rating: 0
[7]
  Agar Dilution Plate rating: 5 (100% effectiveness of the test compound against the specified organism)
Pseudomonas solaracaerum
  Agar Dilution Plate rating: 0
Verticillium albo-atrum
  Agar Dilution Plate rating: 5 (100% effectiveness of the test compound against the specified organism)
